Data as given in patent US20010016731A1, “Methods and apparatus for accelerated orthokeratology” (priority 1998, published 2001).

Legend:
[1] = tested on: enucleated pig eyes (cornea)
[2] = tested on: enucleated pig eyes (cornea); assay: Experiment 2: enucleated pig eyes, EYESYS topographical mapping and slit lamp; conditions: 0.3M sodium persulfate, UV about 30 seconds
Description: Second set of experiments also using enucleated pig eyes. an EYESYS topographical system was available to perform topographical mapping of the eyes before and after treatment. In addition, the EFOS Ultracure 100SS was available for UV light treatment. In a control part of the experiment, an eye was examined using a slit lamp and using the EYESYS system. Neither glutaric anhydride nor sodium persulfate were administered prior to application of UV light exposure. However, buffers were administered to simulate full treatment. […] In a second part of the experiment, a second pig eye was examined by slit lamp, and EYESYS. Topographical profiles were printed. The eye was them soaked in phosphate buffer at pH 8.5 for 2 minutes. Glutaric anhydride at 10 mg/ml was prepared in an alcohol solution and immediately administered to the eye. A contact lens was applied to the eye and held in place for 1 minute. The eye was then soaked in a sodium persulfate solution (0.3M sodium persulfate in pH 8.5 buffer) with the lens still in place. After several one (1) minute soaks in the sodium persulfate solution, the eye was exposed to UV light for about 30 seconds. The lens was removed and the eye washed with phosphate buffer, pH 7.2. The eye was then examined by slit lamp and EYESYS. […] In a third part of the experiment, a third eye was treated the same as above, expect that the glutaric anhydride was delivered in a phosphate buffer, pH 8.5, in an attempt to prevent the clouding observed using alcohol.

[3] = tested on: rabbit's eyes (cornea); assay: Experiment 3: live rabbit eye, EYESYS topography and slit-lamp; assay type: in vivo; conditions: glutaric anhydride 20 mg/ml in pH 8.5 phosphate buffer, contact lens, 0.3M sodium persulfate, UV two 30 second bursts
Description: Third set of experiments using a live rabbit. Both the EYESYS topographical system and EFOS Ultracure 100SS were available. The rabbit's eyes were examined by slit-lamp and EYESYS. Topographical profiles were printed. The control eye was left untreated. The experimental eye was exposed to 0.02M phosphate buffer, pH 8.5, and treated with glutaric anhydride at 20 mg/ml in pH 8.5 phosphate buffer followed by application of a contact lens. The eye was then washed with 0.02M phosphate buffer, pH 8.5 to remove residual glutaric acid, soaked with buffer containing 0.3M sodium persulfate and exposed to UV light for two 30 second bursts with the contact lens in place. Both the control and treated eyes were examined by slit-lamp and EYESYS. Topographical profiles were printed.

[4] = contact lens without destabilization, sodium persulfate solution then UV about 30 seconds
[5] = glutaric anhydride 10 mg/ml in alcohol solution, contact lens 1 minute

Row | SMILES | persistence of ridge created by the contact lens [1, 4] | slit-lamp appearance of eyes after treatment [1, 4] | EYESYS examination (eye topography) [2, 5] | slit lamp examination (corneal clouding) [2, 5] | EYESYS examination (eye topography) ([2]; glutaric anhydride delivered in phosphate buffer pH 8.5, contact lens) | slit lamp examination (corneal clouding) ([2]; glutaric anhydride delivered in phosphate buffer pH 8.5, contact lens, compared with alcohol solution) | slit-lamp examination of treated eye [3] | surface topography of treated eye (EYESYS) [3] | time for corneal haze to clear [3] | indentations and ridges created by the lens ([1]; 10 mg/ml glutaric anhydride 1 minute, contact lens, 0.3M sodium persulfate, UV 20 seconds) | K-readings after UV treatment ([1]; 10 mg/ml glutaric anhydride 1 minute, contact lens, 0.3M sodium persulfate, UV 20 seconds, pretreatment 36.75/37.5)
1 | O=S(=O)([O-])OOS(=O)(=O)[O-].[Na+].[Na+] [sodium persulfate] | visible after 1 hour | clear |  |  |  |  |  |  |  |  | 
2 | O=C1CCCC(=O)O1 [glutaric anhydride] |  |  | eye topography had been changed | some cloudiness | topographical changes appearing to match the curvature of the applied contact lens | much less corneal clouding | some corneal haze | obvious change in surface topography | about 1 hour | observed immediately post-treatment and 1 hour after treatment | too steep to read and rather distorted
